Results as given in patent US7192982B2, “Modulators of peroxisome proliferator activated receptors” (Ligand Pharmaceuticals, Inc., priority 2001, dated 2007).

Legend:
[1] = system: mice, transgenic for human apoAI; assay: Evaluation of triglyceride and cholesterol levels in HuapoAI transgenic mice; type: in vivo; conditions: hu apoAI transgenic mice
Protocol: Five to six week old male mice, transgenic for human apoAI [C57B1/6-tgn(apoa1)1rub, Jackson Laboratory, Bar Harbor, Me.] were housed five per cage (10″×20″×8″ with aspen chip bedding) with food (Purina 5001) and water available at all times. After an acclimation period of 2 weeks, animals were individually identified by ear notches, weighed and assigned to groups based on body weight. Beginning the following morning, mice were dosed daily by oral gavage for 7 days using a 20 gauge, 1½″ curved disposable feeding needle. Treatments were test compounds (30 mg/kg), a positive control (fenofibrate, 100 mg/kg) or vehicle [1% carboxymethylcellulose (w/v)/0.25% Tween80 (w/v); 0.2 ml/mouse]. Prior to termination on day 7, mice were weighed and dosed. Three hours after dosing, animals were anesthetized by inhalation of isoflurane (2–4%) and blood obtained via cardiac puncture (0.7–1.0 ml). Whole blood was transferred to serum separator tubes (Vacutainer SST), chilled on ice and permitted to clot. Serum, was obtained after centrifugation at 4° C. and frozen until analysis for triglycerides, total cholesterol, compound levels and serum lipoprotein profiled by fast protein liquid, chromatography (FPLC) coupled to an inline detection system. After sacrifice by cervical dislocation, the liver, heart and epididymal fat pads were excised and weighed.
Glucose was measured colorimetrically by using commercially purchased reagents (Sigma #315-500). According to the manufacturers, the procedures were modified from published work (McGowan et al. Clin Chem, 20:470–5 (1974) and Keston, A. Specific colorimetric enzymatic analytical reagents for glucose. Abstract of papers 129th Meeting ACS, 31C (1956).); and depend on the release of a mole of hydrogen peroxide for each mole of analyte coupled with a color reaction first described by Trinder (Trinder, P. Ann Clin Biochem, 6:24 (1969)). The absorbance of the dye produced was linearly related to the analyte in the sample. The assays was further modified for use in a 96 well format. Standards (Sigma #339-11, Sigma #16-11, and Sigma #CC0534 for glucose, triglycerides and total cholesterol, respectively), quality control plasma (Sigma # A2034), and samples-(2 or 5 μl well) were measured in duplicate using 200 μl of reagent. An additional aliquot of sample, pipetted to a third well and diluted in 200 μl water, provided ai blank for each specimen. Plates were incubated at room temperature (18, 15, and 10 minutes for glucose, triglycerides and total cholesterol, respectively) on a plate shaker and absorbance read at 500 nm (glucose and total cholesterol) or 540 nm (triglycerides) on a plate reader. Sample absorbance was compared to a standard curve (100–800, 10–500, and 100–400 mg/dl for glucose, triglycerides and total cholesterol, respectively). Values for the quality control sample wee consistently within the expected range and the coefficient of variation for samples is below 10%. All samples from an experiment were assayed at the same time to minimize inter-assay variability.
Serum lipoproteins were separated and cholesterol was quantitated with an in-line detection system. Sample was applied to a Superose® 6 HR 10/30 size exclusion column (Amersham Pharmacia Biotech) and eluted with phosphate buffered saline-EDTA at 0.5 ml/min. Cholesterol reagent (Roche Diagnostics Chol/HP 704036) at 0.16 ml/min was mixed with the column effluent through a T-connection, and the mixture was passed through a 15 m×0.5 mm id knitted tubing reactor immersed in a 37° C. water bath. The colored product produced in the presence of cholesterol was monitored in the flow stream at 505 nm, and the analog voltage from the monitor was converted to a digital signal for collection and analysis. The change in voltage corresponding to change in cholesterol concentration was plotted against time, and the area under the curve corresponding to the elution of VLDL, LDL and HDL was calculated (Perkin Elmer Turbochrome software).

melting point [°C]	SMILES	mean percent increase of HDLc ([1]; FPLC of pooled sera, 100 mg/kg oral daily for 7 days, versus vehicle) [%]	high-density lipoprotein cholesterol (HDLc) peak area ([1]; FPLC of pooled sera, 100 mg/kg oral daily for 7 days, vehicle 47 v-sec to 62 v-sec)	mean elevation of total serum cholesterol ([1]; 100 mg/kg oral gavage daily for 7 days, versus vehicle) [%]	average total serum cholesterol values ([1]; 100 mg/kg oral gavage daily for 7 days, vehicle about 140 to 180 mg/dl) [mg/dL]	mean reduction of triglycerides ([1]; serum, 100 mg/kg oral gavage daily for 7 days, versus vehicle) [%]	average triglycerides values ([1]; serum, 100 mg/kg oral gavage daily for 7 days, vehicle about 60 to 80 mg/dl) [mg/dL]
	CC(C)OC(=O)C(C)(C)Oc1ccc(C(=O)c2ccc(Cl)cc2)cc1 [fenofibrate]	48	68–96 v-sec	41	190 to 280	37	33 to 58
111 to 112	CO[C@@H](Cc1ccc(C#CCOc2ccc(-c3ccccc3)cc2)cc1)C(=O)O [Example 1, (2S)-3-{4-[3-(Biphenyl-4-yloxy)-prop-1-ynyl]-phenyl}-2-methoxy-propionic acid]						
